Values quoted from earlier work as cited in patent US20260335248A1, “ANTIFUNGAL AGENT ENCAPSULATED IN A LIPID NANOCRYSTAL FOR TREATING MUCORMYCOSIS” (MATINAS BIOPHARMA NANOTECHNOLOGIES, INC., priority 2022, published 2026).

Test system: mucormycosis
Details: Luo et al., 2013

Structure (SMILES): CC[C@@H]([C@H](C)O)n1ncn(-c2ccc(N3CCN(c4ccc(OC[C@@H]5CO[C@@](Cn6cncn6)(c6ccc(F)cc6F)C5)cc4)CC3)cc2)c1=O [Posaconazole, posaconazole]
- fungal burdens in lungs and brain compared with placebo: effective in reducing the fungal burdens in lungs and brain
